Results: patent publication US8207227B2, “Disodium salts, monohydrates, and ethanol solvates for delivering active agents” (Emisphere Technologies, Inc., priority 1999, dated 2012)
One block for each compound: values may come before it.

Tests used:
[1] = Oral delivery of sCT/sodium salt of 5-CNAC in rats; serum sCT by EIA kit, modified protocol; type: in vivo, Sprague-Dawley rats; conditions: subcutaneous, sCT 5 mg/kg (so in the source), no delivery agent
Experimental: The rats were administered one of the following: • (4a) orally, one capsule of 13 mg lyophilized powder as prepared as in Example 19 with 0.5 ml of water to flush the capsule down; • (4b) orally, 1.0 ml/kg of a reconstituted aqueous solution of the lyophilized powder prepared in Example 19; • (4c) orally, 1.0 ml/kg of “fresh”, unlyophilized aqueous solution of 5-CNAC sodium salt as prepared in Example 20 with sCT; or • (4d) subcutaneously, 5 mg/kg of sCT.
Doses (4a), (4b) and (4c) contained 50 mg/kg of the sodium salt of 5-CNAC and […] of sCT. Doses for (4a) are approximate because the animals were given one capsule filled with the stated amount of powder based on an average animal weight of 250 g, whereas actual animal weight varied. This is also the case in all later examples where a capsule is dosed.
The reconstituted solution for (4b) was prepared by mixing 150 mg of the lyophilized powder prepared as in Example 19 in 3 ml of water. The reconstituted solution was dosed at […].
The subcutaneous doses were prepared by dissolving 2 mg of sCT in 1 ml water. […]. This solution was dosed at 0.5 ml/kg.
Blood samples were collected serially from the tail artery. […]

clotting time (APTT) = experiment: Oral delivery of heparin with SNAC salts; clotting time by activated partial thromboplastin time (APTT); type: in vivo, Sprague-Dawley rats; conditions: rats, oral gavage, 3 ml/kg, compound 300 mg/kg, heparin 100 mg/kg; baseline about 20 seconds
Experimental: Oral gavage (PO) dosing solutions containing heparin sodium USP and either the mono-sodium or di-sodium salt form of the delivery agent compound SNAC were prepared in water. The delivery agent compound and heparin (166.9 IU/mg) were mixed by vortex as dry powders. This dry mixture was dissolved in water, vortexed and sonicated at about 37° C. to produce a clear solution. The pH was not adjusted. The final volume was adjusted to about 10.0 ml. The final delivery agent compound dose, heparin dose and dose volume amounts are listed below in Table 2 below.
The typical dosing and sampling protocols were as follows. […]
Citrated blood samples were collected by cardiac puncture 0.25, 0.5, 1.0 and 1.5 hours after administration. Heparin absorption was verified by an increase in clotting time as measured by the activated partial thromboplastin time (APTT) according to the method of Henry, J. B., Clinical Diagnosis and Management by Laboratory Methods, Philadelphia, Pa., W.B. Saunders (1979). […] Heparin absorption was also verified by an increase in plasma heparin measured by the anti-Factor Xa assay CHROMOSTRATE® Heparin anti-Xa assay, available from Organon Teknika Corporation of Durham, N.C. […]

[2] = Oral delivery of heparin with SNAC salts; plasma heparin by anti-Factor Xa assay; type: in vivo, Sprague-Dawley rats; conditions: rats, oral gavage, 3 ml/kg, compound 300 mg/kg, heparin 100 mg/kg
Experimental: The typical dosing and sampling protocols were as follows. […] The syringe was filled with dosing solution by drawing the solution through the catheter, which was then wiped dry. The catheter was placed down the esophagus leaving 1 cm of tubing past the incisors. Solution was administered by pressing the syringe plunger.

[3] = Oral delivery of low molecular weight heparin (LMWH) with SNAD salts; plasma heparin by anti-Factor Xa assay; type: in vivo, Sprague-Dawley rats; conditions: rats, 3 ml/kg, compound 300 mg/kg, LMWH dose 3000 (mg/kg)
Experimental: The typical dosing and sampling protocols were as follows. Male Sprague-Dawley rats weighing between 275-350 g were fasted for 24 hours and were anesthetized with ketamine hydrochloride (about 88 mg/kg) intramuscularly immediately prior to dosing and again as needed to maintain anesthesia. A dosing group of ten rats was administered one of the dosing solutions. An 11 cm Rusch 8 French catheter was adapted to a 1 ml syringe with a pipette tip. The syringe was filled with dosing solution by drawing the solution through the catheter, which was then wiped dry. The catheter was placed down the esophagus leaving 1 cm of tubing past the incisors. Solution was administered by pressing the syringe plunger.
Oral dosing (PO) compositions containing low molecular weight heparin (LMWH) and either the mono-sodium or di-sodium salt form of the delivery agent compound SNAD were prepared in water. […]
Citrated blood samples were collected by cardiac puncture 0.5, 1.0, 2.0, 3.0 and 4.0 hours after administration. Heparin absorption was verified by an increase in plasma heparin measured by the anti-Factor Xa assay CHROMOSTRATE® Heparin anti-Xa assay, available from Organon Teknika Corporation of Durham, N.C. Baseline values were determined earlier and found to be about zero IU/ml. […]

[4] = Oral delivery of heparin with SNAD salts; plasma heparin by anti-Factor Xa assay; type: in vivo, cynomolgus macaque monkeys; conditions: cynomolgus monkeys, about 150 mg/kg delivery agent and 30 mg/kg heparin
Experimental: The dose for each monkey was about 150 mg/kg of the disodium SNAD ethanol solvate and about 30 mg/kg of heparin. The dosing protocol for administering the capsules to each animal was as follows. […] Water was available throughout the dosing period and 400 ml juice was made available to the animal overnight prior to dosing and throughout the dosing period. The animal was restrained in a sling restraint. A capsule was placed into a “pill gun”, which is a plastic tool with a cocked plunger and split rubber tip to accommodate a capsule. The pill gun was inserted into the esophagus of the animal. The plunger of the pill gun was pressed to push the capsule out of the rubber tip into the esophagus. The pill gun was then retracted. The animal's mouth was held closed and approximately 5 ml reverse osmosis water was administered into the mouth from the side to induce a swallowing reflex. The throat of the animal was rubbed further to induce the swallowing reflex. […] Blood was added to fill the tube to the 1.3 ml line. The tube was then placed on wet ice pending centrifugation. […] Plasma heparin concentrations were determined using the anti-Factor Xa assay CHROMOSTRATE™ heparin anti-Xa assay, available from Organon Teknika Corporation of Durham, N.C. Results from the animals were averaged for each time point. […] Two tablets were dosed to each of approximately 4.0 kg monkeys. […]

- Mean Peak Serum sCT ± SD ([1]; Table 5, rats): 965 ± 848 pg/mL
- Mean Peak Serum sCT ± SD ([1]; Table 6, rats): 273 ± 320 pg/mL
Compound: CC(C)C[C@H](NC(=O)[C@H](CCCCN)NC(=O)CNC(=O)[C@H](CC(C)C)NC(=O)[C@@H](NC(=O)[C@@H]1CSSC[C@H](N)C(=O)N[C@@H](CO)C(=O)N[C@@H](CC(N)=O)C(=O)N[C@@H](CC(C)C)C(=O)N[C@@H](CO)C(=O)N[C@@H]([C@@H](C)O)C(=O)N1)C(C)C)C(=O)N[C@@H](CO)C(=O)N[C@@H](CCC(N)=O)C(=O)N[C@@H](CCC(=O)O)C(=O)N[C@@H](CC(C)C)C(=O)N[C@@H](Cc1c[nH]cn1)C(=O)N[C@@H](CCCCN)C(=O)N[C@@H](CC(C)C)C(=O)N[C@@H](CCC(N)=O)C(=O)N[C@H](C(=O)N[C@@H](Cc1ccc(O)cc1)C(=O)N1CCC[C@H]1C(=O)N[C@@H](CCCNC(=N)N)C(=O)N[C@H](C(=O)N[C@@H](CC(N)=O)C(=O)N[C@H](C(=O)NCC(=O)N[C@@H](CO)C(=O)NCC(=O)N[C@H](C(=O)N1CCC[C@H]1C(N)=O)[C@@H](C)O)[C@@H](C)O)[C@@H](C)O)[C@@H](C)O [(4d) subcutaneous, salmon calcitonin]

- Mean Peak Factor Xa (IU · ml) ± SE [2]: 2.81 ± 0.17 IU · ml
Compound: O=C([O-])CCCCCCCNC(=O)c1ccccc1[O-].[Na+].[Na+] [SNAC - di]
- Mean Peak APTT (sec) ± SE (clotting time (APTT)): 300 ± 0 s

Compound: O=C([O-])CCCCCCCCCNC(=O)c1ccccc1[O-].[Na+].[Na+] [SNAD-di]
- Mean Peak Plasma Heparin Concentration (IU/ml) ± SE [3]: 1.21 ± 0.15 IU/ml

Compound: O=C([O-])CCCCCCCCCNC(=O)c1ccccc1O.[Na+] [monosodium salt of SNAD, Monosodium N-(10-[2-hydroxybenzoyl]amino)decanoate]
- Time after administration at which maximum averaged plasma heparin was reached [4]: 2 h
- Maximum averaged plasma heparin concentration ([4]; two capsules or two tablets): 0.23±0.19 IU/mL
- Mean Peak Plasma Heparin Concentration (IU/ml) ± SE [3]: 0.88 ± 0.17 IU/ml

Compound: Mono-Sodium N-(8-[(2-hydroxybenzoyl]amino)caprylate [SNAC - mono]
- Mean Peak APTT (sec) ± SE (clotting time (APTT)): 247 ± 28.5 s
